In ChEMBL document CHEMBL3232788, “1-(2-Hydroxy-2-methyl-3-phenoxypropanoyl)indoline-4-carbonitrile derivatives as potent and tissue selective androgen receptor modulators” (J Med Chem, 2014) one finds IC50 and EC50 data, which are given here for 22 molecules.

Structures are written as SMILES.

Test [1] deals with T1, Androgen receptor (Homo sapiens, UniProt P10275).
T1 sequence (P10275 whole entry): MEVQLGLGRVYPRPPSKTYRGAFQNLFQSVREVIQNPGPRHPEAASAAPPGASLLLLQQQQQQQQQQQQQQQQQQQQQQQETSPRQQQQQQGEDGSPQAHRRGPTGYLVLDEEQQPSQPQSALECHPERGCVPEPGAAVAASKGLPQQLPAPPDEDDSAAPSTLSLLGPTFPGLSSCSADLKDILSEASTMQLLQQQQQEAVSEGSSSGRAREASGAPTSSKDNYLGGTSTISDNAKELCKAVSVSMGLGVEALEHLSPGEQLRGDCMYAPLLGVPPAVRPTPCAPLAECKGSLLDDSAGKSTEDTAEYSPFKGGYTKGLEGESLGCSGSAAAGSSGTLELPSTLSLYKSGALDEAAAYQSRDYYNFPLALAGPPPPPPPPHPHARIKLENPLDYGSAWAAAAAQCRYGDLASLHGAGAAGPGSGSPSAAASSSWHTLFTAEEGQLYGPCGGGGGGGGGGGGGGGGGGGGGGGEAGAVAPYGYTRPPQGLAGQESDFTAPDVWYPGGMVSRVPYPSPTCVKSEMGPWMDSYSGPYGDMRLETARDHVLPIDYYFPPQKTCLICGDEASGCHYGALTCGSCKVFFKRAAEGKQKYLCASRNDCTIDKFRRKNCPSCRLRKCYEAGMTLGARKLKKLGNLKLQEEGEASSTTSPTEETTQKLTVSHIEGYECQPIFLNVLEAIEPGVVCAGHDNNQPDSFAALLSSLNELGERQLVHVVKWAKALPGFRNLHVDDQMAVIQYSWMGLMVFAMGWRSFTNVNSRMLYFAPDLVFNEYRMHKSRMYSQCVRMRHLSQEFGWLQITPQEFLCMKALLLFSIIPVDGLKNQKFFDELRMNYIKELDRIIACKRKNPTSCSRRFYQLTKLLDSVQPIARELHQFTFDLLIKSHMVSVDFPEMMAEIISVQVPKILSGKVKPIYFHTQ
Description: Displacement of [3H]mibolerone from full length human AR expressed in COS cells after 3.5 hrs by liquid scintillation counting. The test is classed as cell-based. (Displacement assays read how much labelled ligand stays bound in the presence of the test substance.)

The target of test [2] is T1, Androgen receptor. Description: Agonist activity at human AR expressed in CV1 cells after 17 hrs by luciferase reporter gene assay. The test is classed as cell-based, CV-1. Background: In a reporter assay the amount or activity of a reporter protein is the signal.
The target of test [3] is T1, Androgen receptor. Nature of the test: Binding affinity to human AR NTD (1 to 561 aa) expressed in CV1 cells coexpressing human AR-LBD (644-919 aa) assessed as N/C-termini interaction by androgenic assay. The test is classed as cell-based, CV-1.

Broadly, the IC50 is the concentration needed to halve the response being measured. High values mean weaker potency, low ones greater potency. As usually defined, the EC50 is the midpoint of the concentration-response curve. On to `C[C@](O)(COc1ccc(Cl)cc1)C(=O)N1CCc2c(C#N)cccc21`, for which the concentration for half-maximal inhibition (IC50) at Androgen receptor [1] was found to be 36.5 nM. For the same molecule, the EC50 at Androgen receptor [2] came to 3.4 nM; on Androgen receptor [3] it was 172 nM.

On Androgen receptor [1], `COc1ccc(OC[C@](C)(O)C(=O)N2CCc3c(C#N)cccc32)c(Cl)c1` had an IC50 of 3.5 nM. The EC50 is 0.61 nM on Androgen receptor [2] and 54.1 nM at Androgen receptor [3].

With `C[C@](O)(COc1ccc(Cl)cc1Cl)C(=O)N1CCc2c(C#N)cccc21`, the half-inhibitory concentration (IC50) at Androgen receptor [1] stood at 9.1 nM. Besides, the EC50 at Androgen receptor [2] worked out at 0.25 nM; on Androgen receptor [3] it was 1.4 nM.

As for `COc1cc(Cl)ccc1OC[C@](C)(O)C(=O)N1CCc2c(C#N)cccc21`, the half-maximal inhibitory concentration (IC50) on Androgen receptor [1] was found to be 366 nM. In addition, the EC50 at Androgen receptor [2] is 17.1 nM; at Androgen receptor [3] it was over 10000 nM.

In the case of `C[C@](O)(COc1ccc(Br)cc1)C(=O)N1CCc2c(C#N)cccc21`, on Androgen receptor [1], the half-maximal inhibitory concentration (IC50) was determined as 2.4 nM. Besides, the concentration for a half-maximal effect (EC50) on Androgen receptor [2] was determined as 0.34 nM; on Androgen receptor [3] it was 7.6 nM.

Turning to `C[C@](O)(COc1ccc(C#N)cc1)C(=O)N1CCc2c(C#N)cccc21`, the half-inhibitory concentration (IC50) at Androgen receptor [1] stood at 16.4 nM. Moreover, the values for the EC50 at Androgen receptor [2] and at Androgen receptor [3] were 1.8 nM and 71.8 nM, respectively.

As for `C[C@](O)(COc1ccc(C#N)cc1F)C(=O)N1CCc2c(C#N)cccc21`, the IC50 at Androgen receptor [1] amounted to 3.2 nM. Further, the 50% effective concentration (EC50) on Androgen receptor [2] turned out to be 0.039 nM; on Androgen receptor [3] it was 0.14 nM.

Take `COc1ccc(OC[C@](C)(O)C(=O)N2CCc3c(C#N)cccc32)c(F)c1`: the IC50 at Androgen receptor [1] was 427 nM. For the same molecule, the EC50 at Androgen receptor [2] is 2.9 nM; on Androgen receptor [3], over 10000 nM.

Molecule `COc1cc(C#N)ccc1OC[C@](C)(O)C(=O)N1CCc2c(C#N)cccc21` registered an IC50 at Androgen receptor [1] of 16.1 nM. For the same molecule, the EC50 on Androgen receptor [2] was 7.6 nM; on Androgen receptor [3], 2120 nM.

`C[C@](O)(COc1ccc(F)cc1Br)C(=O)N1CCc2c(C#N)cccc21` displayed an IC50 at Androgen receptor [1] of 11.4 nM. The 50% effective concentration (EC50) on Androgen receptor [2] came out at 0.4 nM; at Androgen receptor [3], 39.5 nM.

`C[C@](O)(COc1cccc(F)c1)C(=O)N1CCc2c(C#N)cccc21` gave an IC50 at Androgen receptor [1] of 34.2 nM. The half-maximal effective concentration (EC50) stood at 37.4 nM at Androgen receptor [2] and 1530 nM at Androgen receptor [3].

Molecule `C[C@](O)(COc1cccc(Cl)c1)C(=O)N1CCc2c(C#N)cccc21` yielded an IC50 on Androgen receptor [1] of 107 nM. For the same molecule, the 50% effective concentration (EC50) on Androgen receptor [2] is 275 nM; on Androgen receptor [3] it was over 10000 nM.

`C[C@](O)(COc1ccc(Cl)cc1F)C(=O)N1CCc2c(C#N)cccc21`: at Androgen receptor [1], the IC50 was determined as 5 nM. Besides, the results for the EC50 on Androgen receptor [2] and at Androgen receptor [3] were 0.28 nM and 0.85 nM, respectively.

In the case of `C[C@](O)(COc1ccc(Br)cc1F)C(=O)N1CCc2c(C#N)cccc21`, the half-maximal inhibitory concentration (IC50) on Androgen receptor [1] amounted to 36.8 nM. The EC50 was found to be 0.11 nM at Androgen receptor [2] and 0.93 nM at Androgen receptor [3].

`C[C@](O)(COc1ccccc1Cl)C(=O)N1CCc2c(C#N)cccc21`: the half-maximal inhibitory concentration (IC50) at Androgen receptor [1] was found to be 56.3 nM. Also, the values for the EC50 at Androgen receptor [2] and at Androgen receptor [3] were 6.1 nM and 4820 nM, respectively.

In turn, `Cc1cc(F)ccc1OC[C@](C)(O)C(=O)N1CCc2c(C#N)cccc21` displayed a 50% inhibitory concentration (IC50) at Androgen receptor [1] of 10.7 nM. Moreover, the EC50 on Androgen receptor [2] was found to be 1.1 nM; at Androgen receptor [3], 72.2 nM.

On to `C[C@](O)(COc1ccc(C#N)cc1Br)C(=O)N1CCc2c(C#N)cccc21`, for which the half-maximal inhibitory concentration (IC50) on Androgen receptor [1] was determined as 4.8 nM. Further, the EC50 on Androgen receptor [2] worked out at 0.06 nM; at Androgen receptor [3], 0.41 nM.

Molecule `C[C@](O)(COc1ccccc1C(F)(F)F)C(=O)N1CCc2c(C#N)cccc21` had a concentration for half-maximal inhibition (IC50) at Androgen receptor [1] of 60.9 nM. Also, the EC50 on Androgen receptor [2] was 1.7 nM; on Androgen receptor [3], 372 nM.

On Androgen receptor [1], `COC(=O)c1ccc(OC[C@](C)(O)C(=O)N2CCc3c(C#N)cccc32)cc1` had an IC50 of 133 nM. The half-maximal effective concentration (EC50) is 6.8 nM on Androgen receptor [2] and over 10000 nM on Androgen receptor [3].

`C[C@](O)(COc1ccc(C(F)(F)F)cc1)C(=O)N1CCc2c(C#N)cccc21` returned an IC50 on Androgen receptor [1] of 33.1 nM. Also, the concentration for a half-maximal effect (EC50) on Androgen receptor [2] was 1.8 nM; at Androgen receptor [3], over 10000 nM.

Consider `C[C@](O)(COc1ccccc1)C(=O)N1CCc2c(C#N)cccc21`, for which, on Androgen receptor [1], the IC50 is 99.5 nM. Moreover, the concentration giving a half-maximal response (EC50) at Androgen receptor [2] was 689 nM; at Androgen receptor [3], over 10000 nM.

As to `COc1ccc(OC[C@](C)(O)C(=O)N2CCc3c(C#N)cccc32)cc1`, at Androgen receptor [1], the half-inhibitory concentration (IC50) was 146 nM. The EC50 came out at 8.6 nM on Androgen receptor [2] and 624 nM on Androgen receptor [3].
